{"source": "paper PMC6273599", "about": "“Sesquiterpenoids and Diterpenoids from the Wood of Cunninghamia konishii and Their Inhibitory Activities against NO Production” (Molecules, 2016)", "format_in_all_cases": "cell-based, murine", "key": {"[1]": {"assay": "Cell viability / cytotoxicity (MTT)", "conditions": "mouse, RAW 264.7 macrophage cells, RAW 264.7 cells, 24 h with test compound in presence of 100 ng/mL LPS, mean ± SD of three replicates", "excerpt": "(§1) Nitric oxide (NO) is derived from the oxidation of L-arginine by NO synthase (NOS) and is recognized as a mediator and regulator in biological actions, especially in inflammatory responses. In inflammation and carcinogenesis conditions, there is an increased production of NO by inducible NO synthase (iNOS). Thus, inhibitors of NO might be of therapeutic importance in preventing pathological conditions catalyzed by inflammation. Macrophages contain various chemical mediators that may be responsible for several inflammatory stages and have been expected to be an origin of inflammation. iNOS mainly exists in macrophages and can be induced by pro-inflammatory agents lipopolysaccharides (LPS). […] In this study, the inhibitory activity toward NO production of four sesquiterpenoids (1, 4, 5, and 6) and eight diterpenoids (8–15) was evaluated by measurement of nitrite/nitrate in LPS-stimulated RAW 264.7 cells. To search for the appropriate concentrations for the above assay, these 12 compounds were first tested their cytotoxic activity against the RAW 264.7 cells, and no significant cytotoxic activities were observed under all tested concentrations (Table 3).\n(§2) A murine macrophage cell line RAW264.7 (BCRC No. 60001) was obtained from the Bioresources Collection and Research Center (BCRC) of the Food Industry Research and Development Institute (Hsinchu, Taiwan). Cells were maintained in Dulbecco’s Modified Eagle Medium (DMEM, Sigma, St. Louis, MO, USA) supplemented with 10% fetal bovine serum (FBS, Sigma). Cells were cultured in a humidified atmosphere with 5% CO2 at 37 °C and subcultured every three days at a dilution of 1:5 using 0.05% trypsin-0.02% EDTA in Ca^2+-, Mg^2+-free phosphate-buffered saline (DPBS).\n(§3) Cells (2 × 10^5) were cultured in 96-well plate containing DMEM supplemented with 10% FBS. After 24 h of cells incubation, cells were cultured with test compounds in the presence of 100 ng/mL LPS (lipopolysaccharide) for 24 h. Untreated cells served as the control. After that, the cells were washed twice with DPBS and 100 μL of 0.5 mg/mL MTT was added to each well for further 2 h incubation at 37 °C. The medium was then discarded, and the colored crystals of produced formazan were dissolved in 100 μL dimethyl sulfoxide (DMSO). After 30 min incubation, the absorbance was measured at 570 nm on a microplate reader (Molecular Devices).\n(§4) The data is expressed as means ± standard errors (SE). The IC50 values were calculated from the dose curves using a non-linear regression algorithm (SigmaPlot 8.0; SPSS Inc., Chicago, IL, USA, 2002). Statistical evaluation was carried out by one-way analysis of variance (ANOVA followed by Scheffe’s multiple range tests)."}, "[2]": {"tested_on": "LPS-stimulated RAW 264.7 cells", "assay": "Inhibition of LPS-induced nitric oxide production (Griess nitrite measurement)", "conditions": "LPS (100 ng/mL)-stimulated RAW 264.7 cells, 24 h, Griess reaction, mean ± SD of three replicates; for IC50: Mus musculus, RAW264.7, read-out: Inhibition of NO Production IC50", "excerpt": "as §1, §2\nThe anti-inflammatory activity of compounds was evaluated by using a nitric oxide (NO) inhibitory activity assay. As a stable NO metabolite, production of NO was indirectly determined by Griess reaction to measure the concentration of nitrite in the culture medium. The cells were incubated with test compounds (0, 2.5, 5, 10, 20 and 40 μg/mL) in the presence of LPS (100 ng/mL) at 37 °C for 24 h. Then, cells were dispensed into 96-well plates, and 100 μL of each supernatant was reacted with an equal volume of Griess reagent (1% sulfanilamide, 0.1% naphthyl ethylenediamine dihydrochloride and 5% phosphoric acid) and incubated at room temperature for 10 min. Absorbance was then measured at 540 nm using a Micro-Reader (Molecular Devices Orleans Drive, Sunnyvale, CA, USA). A standard curve was generated, using freshly prepared 0–100 μM […] dissolved in assay buffer, to quantitate unknown nitrite in samples.\nas §4"}, "RAW 264.7 cells": {"tested_on": "RAW 264.7 cells", "assay": "Cell viability / cytotoxicity (MTT)", "conditions": "24 h with test compound in presence of 100 ng/mL LPS, mean ± SD of three replicates", "excerpt": "as §1, §2, §3, §4"}}, "data": [{"compound": "CC1CCC2(C)CC3CCC12C(O)C3(C)C", "note": "(stereo not drawn) [Compound 1, 2α-hydroxy-3,3,6α,9β-tetramethyltricyclo[4,3,2^1,4]undecane]", "values": [{"measurement": "IC50 at 24 h", "setting": "[1]", "value": "> 20", "unit": "µg/mL"}, {"measurement": "IC50", "setting": "[2]", "value": "> 20", "unit": "µg/mL"}]}, {"compound": "CC(=O)OC(C)(C)C1CCC2(C)CCCC(C)(O)C2C1", "note": "(stereo not drawn) [Compound 4, 11-acetoxyeudesman-4β-ol]", "values": [{"measurement": "IC50 at 24 h", "setting": "[1]", "value": "> 20", "unit": "µg/mL"}, {"measurement": "IC50", "setting": "[2]", "value": "> 20", "unit": "µg/mL"}]}, {"compound": "CC(=O)OC(C)(C)C1CCC2(C)CCCC(C)(O)C2C1", "note": "(stereo not drawn) [Compound 5, 11-acetoxyeudesman-4α-ol]", "values": [{"measurement": "Cytotoxicity IC50", "setting": "RAW 264.7 cells", "value": ">20", "unit": "µg/mL"}, {"measurement": "Inhibition of NO Production IC50", "setting": "[2]", "value": ">20", "unit": "µg/mL"}]}, {"compound": "Cc1ccc(C(C)C)c2c1[C@H](O)[C@@H](O)[C@@H](C)C2", "note": "[Compound 6, 2α,3β-dihydroxy-4β-methyl-6,8,10-cadinatriene]", "values": [{"measurement": "IC50 at 24 h", "setting": "[1]", "value": "> 20", "unit": "µg/mL"}, {"measurement": "IC50", "setting": "[2]", "value": "> 20", "unit": "µg/mL"}]}, {"compound": "C=C[C@]1(C)C=C2CC[C@@H]3[C@](C)(CCC[C@@]3(C)C(=O)O)[C@H]2CC1", "note": "[Compound 8, sandaracopimaric acid]", "values": [{"measurement": "IC50 at 24 h", "setting": "[1]", "value": "> 20", "unit": "µg/mL"}, {"measurement": "IC50", "setting": "[2]", "value": "> 20", "unit": "µg/mL"}]}, {"compound": "C=CC(C)=CCC1C(=C)CCC2C(C)(CO)CCCC12C", "note": "(centres unmarked) [Compound 9, elliotinol]", "values": [{"measurement": "IC50 at 24 h", "setting": "[1]", "value": "> 20", "unit": "µg/mL"}, {"measurement": "IC50", "setting": "[2]", "value": "> 20", "unit": "µg/mL"}]}, {"compound": "CC(=O)C=CC1C(C)(O)CCC2C(C)(C)CCCC21C", "note": "(stereo not drawn) [Compound 10, 8α-hydroxy-15,16-bisnorlabda-11-en-13-one]", "values": [{"measurement": "IC50 at 24 h", "setting": "[1]", "value": "> 20", "unit": "µg/mL"}, {"measurement": "IC50", "setting": "[2]", "value": "11.4 ± 0.62", "unit": "µg/mL"}]}, {"compound": "C=CC(=C)CCC1C(C)(O)CCC2C(C)(C=O)CCCC12C", "note": "(centres unmarked) [Compound 11]", "values": [{"measurement": "IC50 at 24 h", "setting": "[1]", "value": "> 20", "unit": "µg/mL"}, {"measurement": "IC50", "setting": "[2]", "value": "> 20", "unit": "µg/mL"}]}, {"compound": "C=C1CCC2C(C)(CO)CCCC2(C)C1C=CC(C)=O", "note": "(centres unmarked) [Compound 12]", "values": [{"measurement": "IC50 at 24 h", "setting": "[1]", "value": "> 20", "unit": "µg/mL"}, {"measurement": "IC50", "setting": "[2]", "value": "> 20", "unit": "µg/mL"}]}, {"compound": "C=CC1(C)OC2(C)CCC3C(C)(CO)CCCC3(C)C2CC1O", "note": "(centres unmarked) [Compound 13]", "values": [{"measurement": "IC50 at 24 h", "setting": "[1]", "value": "> 20", "unit": "µg/mL"}, {"measurement": "IC50", "setting": "[2]", "value": "> 20", "unit": "µg/mL"}]}, {"compound": "C=C1CCC2C(C)(C(=O)O)CCCC2(C)C1CC1OCC=C1C", "note": "(centres unmarked) [Compound 14]", "values": [{"measurement": "IC50 at 24 h", "setting": "[1]", "value": "> 20", "unit": "µg/mL"}, {"measurement": "IC50", "setting": "[2]", "value": "> 20", "unit": "µg/mL"}]}, {"compound": "C=CC(C)(O)CCC1C(C)(O)CCC2C(C)(C)CCCC21C", "note": "(centres unmarked) [Compound 15]", "values": [{"measurement": "IC50 at 24 h", "setting": "[1]", "value": "> 20", "unit": "µg/mL"}, {"measurement": "IC50", "setting": "[2]", "value": "13.1 ± 0.55", "unit": "µg/mL"}]}, {"compound": "COc1ccc2c(c1)c(CC(=O)O)c(C)n2C(=O)c1ccc(Cl)cc1", "note": "[indomethacin, reference compound]", "values": [{"measurement": "IC50 at 24 h", "setting": "[1]", "value": "> 100", "unit": "µg/mL"}, {"measurement": "IC50", "setting": "[2]", "value": "65.4 ± 1.8", "unit": "µg/mL"}]}]}
